Laboratory results from US20120157471A1, “BENZIMIDAZOLE DERIVATIVES” (PFIZER INC., priority 2009, published 2012).

Columns and labels:
Gli-Luc/MEF cells (Smo) = assay: Gli-Luc/MEF assay (Shh-stimulated luciferase reporter under the Gli response element); assay type: cell-based, mouse; details: Mus musculus, MEF, 48 h
Method in brief: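 Mouse Gli-Luc/MEF cells dosed with compound (3-fold series, […]) plus 2 μg/mL recombinant mouse Shh, then incubated 48 h at 37° C, 5% CO2. Bright-Glo luminescence read; IC50 calculated from inhibition of Shh-stimulated luciferase.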

[1] = target: T1, human Smo (amino acids 181-787) (Homo sapiens, UniProt Q99835); assay: Smo radioligand competition binding assay (displacement of 3H-PF-03451358 from HEK293 membranes); details: for inhibition at 0.05 µM: 0.05 μM test compound, displacement of 3H-PF-03451358, read-out: SMO % inh. @ 0.05 μM; for IC50: radioligand competition binding
T1 construct: expressed in transfected cells; membrane preparation
T1 sequence (Q99835 181-787): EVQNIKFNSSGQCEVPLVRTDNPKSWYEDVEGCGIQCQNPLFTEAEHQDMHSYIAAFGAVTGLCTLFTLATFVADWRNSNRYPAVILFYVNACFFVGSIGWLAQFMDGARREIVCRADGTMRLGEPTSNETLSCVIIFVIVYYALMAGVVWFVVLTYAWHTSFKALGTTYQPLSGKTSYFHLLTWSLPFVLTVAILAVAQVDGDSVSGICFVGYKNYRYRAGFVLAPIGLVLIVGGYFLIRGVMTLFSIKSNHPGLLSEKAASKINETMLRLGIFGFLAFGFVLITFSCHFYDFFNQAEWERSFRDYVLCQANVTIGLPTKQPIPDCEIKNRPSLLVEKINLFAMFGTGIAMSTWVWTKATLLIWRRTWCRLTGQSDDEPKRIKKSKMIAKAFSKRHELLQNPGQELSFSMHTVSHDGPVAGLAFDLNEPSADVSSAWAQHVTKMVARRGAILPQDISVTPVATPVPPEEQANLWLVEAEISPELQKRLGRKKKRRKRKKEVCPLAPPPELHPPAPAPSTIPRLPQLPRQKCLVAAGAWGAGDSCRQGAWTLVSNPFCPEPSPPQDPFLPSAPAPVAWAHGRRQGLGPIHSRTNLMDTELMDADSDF
Method in brief: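 Membranes (40 μg protein/well) from HEK293 expressing murine Igk-leader-fused Smo 181-787 incubated 2 h at room temperature with 3 nM 3H-PF-03451358 in Tris pH 7.5/NaCl/MgCl2/EDTA/BSA buffer; filter-bound counts by scintillation. Nonspecific binding with 30 μM cold PF-03451358; IC50 from four-parameter fit of % inhibition.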

| SMILES | IC50 (Gli-Luc/MEF cells (Smo)) [nM] | inhibition at 0.05 µM [1] [%] | IC50 [1] [nM] |
| --- | --- | --- | --- |
| CC(=O)NC1CCN(c2cc(-c3nc4ccccc4n3C)c(Cl)cn2)C1 (stereo not shown) [Example A-42, N-{1-[5-chloro-4-(1-methyl-1H-benzimidazol-2-yl)pyridin-2-yl]pyrrolidin-3-yl}acetamide] | 92 | 72 | 131 |
| Cn1c(-c2cc(N3C[C@](C)(CO)[C@](C)(CO)C3)ncc2Cl)nc2ccccc21 [Example A-108, {(3R,4S)-1-[5-chloro-4-(1-methyl-1H-benzimidazol-2-yl)pyridin-2-yl]-3,4-dimethylpyrrolidine-3,4-diyl}dimethanol] | 59 | 76 | 109 |
| Cc1nccc(C2(O)CCN(c3cc(-c4nc5ccccc5n4C)c(Cl)cn3)C2)n1 (stereo not shown) [Example A-123, 1-[5-chloro-4-(1-methyl-1H-benzimidazol-2-yl)pyridin-2-yl]-3-(2-methylpyrimidin-4-yl)pyrrolidin-3-ol] | 114 | 59 | – |
| Cc1cnc(N2CCC(NS(C)(=O)=O)CC2)cc1-c1nc2ccccc2n1C [Example E-1, N-{1-[5-methyl-4-(1-methyl-1H-benzimidazol-2-yl)pyridin-2-yl]piperidin-4-yl}methanesulfonamide] | 19.8 | 98 | 19 |
| CNC(=O)N1CCN(c2cc(-c3nc4ccccc4n3C)c(F)cn2)CC1 [Example D-7, 4-[5-fluoro-4-(1-methyl-1H-benzimidazol-2-yl)pyridin-2-yl]-N-methylpiperazine-1-carboxamide] | 54 | 88 | 47 |
| Cn1nc2n(c1=O)CCN(c1cc(-c3nc4ccccc4n3C)c(Cl)cn1)CC2 [Example A-78, 7-[5-chloro-4-(1-methyl-1H-benzimidazol-2-yl)pyridin-2-yl]-2-methyl-2,5,6,7,8,9-hexahydro-3H-[1,2,4]triazolo[4,3-d][1,4]diazepin-3-one] | 11 | 92 | 14 |
| Cn1c(-c2cc(N3C[C@H]4CC[C@@H](C3)N4)ncc2Cl)nc2ccccc21 [Example A-185, 2-{5-chloro-2-[(1R,5S)-3,8-diazabicyclo[3.2.1]oct-3-yl]pyridin-4-yl}-1-methyl-1H-benzimidazole] | 14 | 91 | 20 |
| Cn1c(-c2cc(N3CCC(OCC(=O)NC4CC4)CC3)ncc2Cl)nc2ccccc21 [Example A-59, 2-({1-[5-chloro-4-(1-methyl-1H-benzimidazol-2-yl)pyridin-2-yl]piperidin-4-yl}oxy)-N-cyclopropylacetamide] | 3 | 96 | 12 |
| CN(C1CCN(c2cc(-c3nc4ccccc4n3C)c(Cl)cn2)CC1)S(C)(=O)=O [Example A-6, N-{1-[5-chloro-4-(1-methyl-1H-benzimidazol-2-yl)pyridin-2-yl]piperidin-4-yl}-N-methylmethanesulfonamide] | 3 | 96 | – |
| CCNC(=O)NC1CCN(c2cc(-c3nc4ccccc4n3C)c(F)cn2)CC1 [Example D-8, 1-ethyl-3-{1-[5-fluoro-4-{1-methyl-1H-benzimidazol-2-yl)pyridin-2-yl]piperidin-4-yl}urea] | 6 | 95 | 6 |
| Cn1c(-c2cc(N3CCC(C(=O)N4CCCC4)CC3)ncc2Cl)nc2ccccc21 [Example A-100, 2-{5-chloro-2-[4-(pyrrolidin-1-ylcarbonyl)piperidin-1-yl]pyridin-4-yl}-1-methyl-1H-benzimidazole] | 21 | 83 | 55 |
| Cn1c(-c2cc(N3CCN(C(=O)C4CCOC4)CC3)ncc2Cl)nc2ccccc21 (stereo not shown) [Example A-191, 2-{5-chloro-2-[4-(tetrahydrofuran-3-ylcarbonyl)piperazin-1-yl]pyridin-4-yl}-1-methyl-1H-benzimidazole] | 1.7 | 101 | 6 |
| CN1CCN(C2CCN(c3cc(-c4nc5ccccc5n4C)c(Cl)cn3)CC2)CC1 [Example A-113, 2-{5-chloro-2-[4-(4-methylpiperazin-1-yl)piperidin-1-yl]pyridin-4-yl}-1-methyl-1H-benzimidazole] | 17 | 72 | 125 |
| Cn1c(-c2cc(N3CCC(CS(N)(=O)=O)CC3)ncc2Cl)nc2ccccc21 [Example A-65, 1-{1-[5-chloro-4-(1-methyl-1H-benzimidazol-2-yl)pyridin-2-yl]piperidin-4-yl}methanesulfonamide] | 2 | 95 | 6 |
| Cn1c(-c2cc(N3CCn4c(CCCO)nnc4C3)ncc2Cl)nc2ccccc21 [Example A-106, 3-{7-[5-chloro-4-(1-methyl-1H-benzimidazol-2-yl)pyridin-2-yl]-5,6,7,8-tetrahydro[1,2,4]triazolo[4,3-a]pyrazin-3-yl}propan-1-ol] | 116 | 78 | 217 |
| CC(=O)NC1CCN(c2cc(-c3nc4ccccc4n3C)c(Cl)cn2)CC1 [Example A-22, N-{1-[5-chloro-4-(1-methyl-1H-benzimidazol-2-yl)pyridin-2-yl]piperidin-4-yl}acetamide] | 6 | 94 | 11 |
| Cn1c(-c2cc(N3CCOC(c4nc(C5CC5)no4)C3)ncc2Cl)nc2ccccc21 (stereo not shown) [Example A-76, 2-{5-chloro-2-[2-(3-cyclopropyl-1,2,4-oxadiazol-5-yl)morpholin-4-yl]pyridin-4-yl}-1-methyl-1H-benzimidazole] | 18 | 92 | 35 |
| CC(=O)NC1CCN(c2ccc(Cl)c(-c3nc4ccccc4n3C)n2)CC1 [Example B-11, N-{1-[5-chloro-6-(1-methyl-1H-benzimidazol-2-yl)pyridin-2-yl]piperidin-4-yl}acetamide] | 7 | 98 | 16 |
| Cn1c(-c2cc(N3CCC(N4CCCC4=O)CC3)ncc2Cl)nc2ccccc21 [Example A-81, 1-{1-[5-chloro-4-(1-methyl-1H-benzimidazol-2-yl)pyridin-2-yl]piperidin-4-yl}pyrrolidin-2-one] | 10 | 91 | 24 |
| COCCc1nnc2n1CCN(c1cc(-c3nc4ccccc4n3C)c(Cl)cn1)C2 [Example A-83, 7-[5-chloro-4-(1-methyl-1H-benzimidazol-2-yl)pyridin-2-yl]-3-(2-methoxyethyl)-5,6,7,8-tetrahydro[1,2,4]triazolo[4,3-a]pyrazine] | 23 | 91 | 49 |
| CC(=O)N1CCN(c2cc(-c3nc4ccccc4n3C)c(C)cn2)CC1 [Example E-4, 2-[2-(4-acetylpiperazin-1-yl)-5-methylpyridin-4-yl]-1-methyl-1H-benzimidazole] | 52.5 | 92 | 61 |
| Cn1c(-c2cc(N3CC(O)C3)ncc2Cl)nc2ccccc21 [Example A-94, 1-[5-chloro-4-(1-methyl-1H-benzimidazol-2-yl)pyridin-2-yl]azetidin-3-ol] | 46 | 87 | 87 |
